The subject of data set [1] is patients with pruritus associated with atopic dermatitis. As to conditions: human, in vivo. The procedure: In another small uncontrolled and unblinded trial, one group of patients with pruritus associated with atopic dermatitis was treated with a spray (aqueous buffered solution of 40 mg/ml hydroxyzine hydrochloride), which was topically applied to an area of the patients' skin affected by atopic dermatitis. The patients were instructed to spray about 0.1 ml (three pump actions of the manually operated spray bottle) of the composition onto an area of about 10 cm^2 affected by symptomatic itching for up to 5 applications per day for a period of two weeks. A second group of group of patients with pruritus associated with atopic dermatitis was treated with a cream (W/O emulsion containing 2% (wt) hydroxyzine hydrochloride), which was topically applied to an area of the patients' skin affected by atopic dermatitis. The patients were instructed to massage a small portion (about 0.2 gram) into an area of about 10 cm^2 affected by symptomatic itching for up to 5 applications per day for a period of two weeks.

For data set [2], the system named is patients with pruritus (neurodermatitis; insect bite). Put plainly: Small, uncontrolled and unblinded trial of hydroxyzine*HCl skin cream in two patients with pruritus. The class given is in vivo, human. As to conditions: skin cream comprising 5% (by weight) hydroxyzine*HCl, both patients. The procedure: In a small, uncontrolled and unblinded trial, two patients with pruritus were treated with a skin cream comprising 5% (by weight) hydroxyzine*HCl. The first patient was diagnosed with neurodermatitis (a non-allergic condition), while the second patient was diagnosed with an insect bite (an allergic condition).

Molecules are shown by their SMILES.

This is an account of results in patent US20030212078A1, “Topical administration of pharmacological compositions for non-systemic treatment of pruritus” (priority 2003, published 2003).

As for `CN1CCC(=C2c3ccccc3C=Cc3ccccc32)CC1` [cyproheptadine], in data set [1] (2 months), the “patients who experienced weight gain of at least 4%” value was 5/15.
As for `Cl.Cl.OCCOCCN1CCN(C(c2ccccc2)c2ccc(Cl)cc2)CC1` (centres unmarked) [hydroxyzine, 1-(p-chlorobenzhydryl) 4-[2-(2-hydroxyethoxy)-ethyl] piperazine dihydrochloride], in data set [1] (2 weeks), the “patients who experienced drowsiness” value was 13/15 and the “patients who experienced transient tachycardia” value is listed as 4/15. Besides, the “time to positive result (significant reduction in pruritus)” value in data set [2] was 60 s. Besides, the “positive result (reduction in pruritus)” value in data set [2] (two patients (neurodermatitis, insect bite)) is recorded as “significant reduction in pruritus”.
